In US11339124B2, “3-(benzylamino)-4-(cyclohexylamino)-n-(2-(piperazin-1-yl)ethyl)benzenesulfonamide derivatives and related ferrostatin-1 analogues as cell death inhibitors for treating e.g. stroke” (VIB VZW, priority 2018, dated 2022):
Read-outs that look alike come from different tables or passages of the source.

Columns and labels:
[1] = test system: IMR-32 Neuroblastoma cells; assay: Erastin-induced ferroptosis in IMR-32 neuroblastoma cells (Sytox Green cell death readout); type: cell-based; settings: IMR-32 cells, 10 μM erastin, compounds 1 nM to 1 μM, triplicate, read-out: IC50, antiferroptotic activity in response to erastin-induced ferroptosis
Procedure: In the present invention the potency of a compound inhibiting (or reducing) ferroptosis and/or oxytosis are determined in in vitro or in vivo assays. Typically in vitro assays are used to measure the potency of a candidate compound. Examples of suitable in vitro assays are cellular assays. One non-limiting example of an assay involves the use of the IMR-32 neuroblastoma cell line. The latter is stimulated to enter into ferroptosis upon stimulation with 10 μM erastin, a documented ferroptosis inducer (see for example Dixon et al (2012) Cell 149, 1060-1072 and ferroptosis inhibitors are evaluated for the prevention of erastin induced ferroptosis. Yet another assay is based the glutamate-induced cell death in the hippocampal cell line HT22 and ferroptosis/oxytosis inhibitors are evaluated for the prevention of cell death (see Henke N. et al (2013) Cell Death and Disease 4, e470). Still another assay is based on the sorafinib induced cell death (described to be iron dependent cell death) in hepatocellular carcinoma cells and ferroptosis inhibitors are evaluated for the prevention of cell death (see Louandre C. et al (2013) Int. J. Cancer 133, 1732). The calculated potency of a compound inhibiting ferroptosis and/or oxytosis is typically depicted as an IC50 value. Examples of suitable in vivo assays are typically pre-clinical disease models of for example mice for the diseases benefiting the application of ferroptosis and/or oxytosis inhibitors, as described herein. One non-limiting example of an in vivo assay is based on inducing liver damage in mice by administering the herbicide diquat dibromide monohydrate and ferroptosis inhibitors are evaluated based on reduced levels of liver transaminases in serum (see Ran Q et al (2004) J. Biol. Chem. 279, 53, 55137).
The IC50 values for the individual compounds of the invention were determined in the neuroblastoma, IMR-32 cell line. In brief, IMR-32 cells were subjected to 10 μM erastin, the latter compound is known to induce ferroptosis. A concentration gradient (ranging from 1 nM to 1 μM) of the compounds was applied to the cells. These experiments were performed in a 96-well format (in triplicate), and cell death was analyzed in a fluorescent plate reader by use of a fluorescent cell death dye (1.5 μM Sytox Green). The IC50 values depicted in Table 1 are the concentration values for the individual compounds which are able to overcome ferroptosis.

[2] = Kinetic solubility (turbidimetric method); type: physicochemical; settings: 10 mM PBS pH 7.4, 2% DMSO, test range 3.125-200 μM, 2 h at 37° C.
Procedure: A turbidimetric method was used. First a series of DMSO compound stock solutions was prepared ([…]). An aliquot of 4 μL stock solution was added to 196 μL PBS buffer (pH 7.4). A series of concentrations were prepared (3.13-200 μM), including a blank on a microtiter plate. (2% DMSO-D6) The microtiter plate was shaken for 10 seconds and incubated for 2 hours at 37° C. When there was no turbidity measured at a given concentration the sample was assumed to be dissolved.

[3] = Microsomal (metabolic) stability, human liver microsomes; settings: human liver microsomes, 0.5 mg protein/ml, 10 μM compound, 37° C.
From the text: By using the measured microsomal in vitro t1/2, a calculated value for the intrinsic clearance Clint can be determined. This value states the measure in which a drug that is not bound to plasma proteins is irreversibly removed from the body by the liver. This value is expressed in mL/min/kg which can be interpreted as the volume of blood in mL that is cleared of a drug per minute per kilogram of body weight. The CLint is less sensitive to used variables in ADME assays since the amount of microsomal protein and the volume of the incubation are all taken into account. (Sohlenius-Sternbeck et al., Xenobiotica, 2012, 42, 841-853)
Liver microsomes (20 mg protein/ml), NADPH regenerating system solutions A & B and 5 mM stock compound solution (100% DMSO) are prepared. The reaction mixture finally contains 713 μL purified water, 200 μL 0.5 M potassium phosphate pH 7.4, 50 μL NADPH regenerating system solution A (BD Biosciences Cat. No. 451220), 10 μL NADPH regenerating system solution B (BD Biosciences Cat. No. 451200) and 2 μL of the compound stock solution (10 μM final concentration). The reaction mixture is warmed to 37° C. for 5 minutes in a water bath and the reaction is initiated by addition of 25 μL of liver microsomes (0.5 mg protein/ml final concentration). At different time points (0 min-15 min-30 min-60 min-120 min-240 min-360 min-24 h), 20 μL is withdrawn and 80 μL cold acetonitrile is added on ice for 10 minutes. Then the mixtures are centrifuged at 13 000 rpm for 5 min at 4° C. The supernatant is further diluted in 90% water/MeCN (1/25) to fall within the range of the LC/MS/MS analysis. At each time point, the compound is analysed using LC/MS/MS with the same UPLC system as described above. A standard curve of six points was made to fit the measured concentrations. Verapamil was used as a positive control.
All obtained readouts were processed using Microsoft Excel. In order to determine the microsomal half-life t1/2 of the compounds, the rate constant k was determined by plotting the exponential decay graphs using GraFit. Microsomal t1/2 was determined using the following formula: […]

[4] = test system: acute iron poisoning induced organ damage; assay: Acute iron poisoning (FeSO4) induced organ damage, plasma LDH and creatine kinase; type: in vivo
Procedure: Equimolar amounts of ferroptosis inhibitors (˜10 mg/kg) were injected iv 15 min before ip injection of FeSO4 (300 mg/kg). Plasma was collected 2 h after FeSO4-challenge and analyzed for the presence of lactate dehydrogenase (LDH) and creatine kinase. Fer-1 is ferrostatin, 3234 is compound 37,3206 is compound 38 and 3203 is compound 39 (see Table 1 for numbering and structure). […] Equimolar amounts of ferroptosis inhibitors (˜10 mg/kg) were injected iv 30 min after ip injection of FeSO4 (300 mg/kg). Plasma was collected 8 h after FeSO4-challenge and analyzed for the presence of lactate dehydrogenase (LDH) and creatine kinase.
We identified acute iron poisoning as a novel experimental model for in rhabdomyolysis-induced kidney failure.

Structure (SMILES) | IC50 ([1]; Homo sapiens) [nM] | Solubility (kinetic) [2] [µM] | IC50 [1] [nM] | Microsomal stability (t1/2), Human [3] [min] | Protection against organ damage: plasma lactate dehydrogenase (LDH) and creatine kinase levels, prophylactic setting ([4]; ~10 mg/kg iv 15 min before FeSO4 300 mg/kg ip, plasma 2 h after challenge (FIG. 5A)) | Protection against organ damage: plasma lactate dehydrogenase (LDH) and creatine kinase levels, therapeutic setting ([4]; ~10 mg/kg iv 30 min after FeSO4 300 mg/kg ip, plasma 8 h after challenge (FIG. 5B))
Cl.O=S(=O)(NCCN1CCNCC1)c1ccc(NC2CCCCC2)c(NCc2ccncc2)c1 [Compound 49, 4-(cyclohexylamino)-N-(2-(piperazin-1-yl)ethyl)-3-((pyridin-4-ylmethyl)amino)benzenesulfonamide Hydrochloride] | 442 | >200 |  |  |  | 
CN1CCN(CCNS(=O)(=O)c2ccc(NC3CCCCC3)c(N)c2)CC1 [Compound 24, 3-amino-4-(cyclohexylamino)-N-(2-(4-methylpiperazin-1-yl)ethyl)benzenesulfonamide] | 236 | >200 |  |  |  | 
Nc1cc(S(=O)(=O)NCCN2CCNCC2)ccc1NC1CCCCC1 [Compound 29, 3-amino-4-(cyclohexylamino)-N-(2-(piperazin-1-yl)ethyl)benzenesulfonamide] | 296 | >200 |  |  |  | 
Nc1cc(S(=O)(=O)NCCN2CCOCC2)ccc1NC1CCCCC1 [Compound 25, 3-amino-4-(cyclohexylamino)-N-(2-morpholinoethyl)benzenesulfonamide] | 448 | >200 |  |  |  | 
CNCCNS(=O)(=O)c1ccc(NC2CCCCC2)c(N)c1.Cl [Compound 27, 3-amino-4-(cyclohexylamino)-N-(2-(methylamino)ethyl)benzenesulfonamide Hydrochloride] | 214 | >200 |  |  |  | 
CNCCNS(=O)(=O)c1ccc(NC2CCCCC2)c(NCc2ccncc2)c1.Cl [Compound 47, 4-(cyclohexylamino)-N-(2-(methylamino)ethyl)-3-((pyridin-4-ylmethyl)amino)benzenesulfonamide Hydrochloride] | 157 | >200 |  |  |  | 
CN1CCN(CCNS(=O)(=O)c2ccc(NC3CCCCC3)c(NCc3ccccc3)c2)CC1 [Compound 34, 3-(benzylamino)-4-(cyclohexylamino)-N-(2-(4-methylpiperazin-1-yl)ethyl)benzenesulfonamide] | 1070 | >200 |  |  |  | 
CCOC(=O)c1ccc(NC2CCCCC2)c(N)c1 [Compound 1, ferrostatin-1] |  | >200 | 33 | 6.54 ± 0.18 | does not show any significant protection | only shows minor protection
CN1CCN(CCNS(=O)(=O)c2ccc(NC3CCCCC3)c(NCc3ccncc3)c2)CC1 [Compound 44, 4-(cyclohexylamino)-N-(2-(4-methylpiperazin-1-yl)ethyl)-3-((pyridin-4-ylmethyl)amino)benzenesulfonamide] | 1520 | >200 |  |  |  | 
CN(C)CCNS(=O)(=O)c1ccc(NC2CCCCC2)c(N)c1 [Compound 20, 3-amino-4-(cyclohexylamino)-N-(2-(dimethylamino)ethyl)benzenesulfonamide] | 160 | >200 |  |  |  | 
COCCNS(=O)(=O)c1ccc(NC2CCCCC2)c(NCc2ccncc2)c1 [Compound 46, 4-(cyclohexylamino)-N-(2-methoxyethyl)-3-((pyridin-4-ylmethyl)amino)benzenesulfonamide] | 97 | >200 |  |  |  | 
Cl.NCCNS(=O)(=O)c1ccc(NC2CCCCC2)c(NCc2ccncc2)c1 [Compound 48, N-(2-aminoethyl)-4-(cyclohexylamino)-3-((pyridin-4-ylmethyl)amino)benzenesulfonamide Hydrochloride] | 112 | 100 to 200 |  |  |  | 
CN(C)CCNS(=O)(=O)c1ccc(NC2CCCCC2)c(NCc2ccncc2)c1 [Compound 40, 4-(cyclohexylamino)-N-(2-(dimethylamino)ethyl)-3-((pyridin-4-ylmethyl)amino)benzenesulfonamide] | 1560 | >200 |  |  |  | 
O=S(=O)(NCCN1CCOCC1)c1ccc(NC2CCCCC2)c(NCc2ccncc2)c1 [Compound 45, 4-(cyclohexylamino)-N-(2-morpholinoethyl)-3-((pyridin-4-ylmethyl)amino)benzenesulfonamide] | 191 | >200 |  |  |  | 
COCCNS(=O)(=O)c1ccc(NC2CCCCC2)c(N)c1 [Compound 26, 3-amino-4-(cyclohexylamino)-N-(2-methoxyethyl)benzenesulfonamide] | 492 | >200 |  |  |  | 
Cl.NCCNS(=O)(=O)c1ccc(NC2CCCCC2)c(N)c1 [Compound 28, 3-amino-N-(2-aminoethyl)-4-(cyclohexylamino)benzenesulfonamide Hydrochloride] | 306 | >200 |  |  |  | 
CN(C)CCNS(=O)(=O)c1ccc(NC2CCCCC2)c(NCc2ccccc2)c1 [Compound 30, 3-(benzylamino)-4-(cyclohexylamino)-N-(2-(dimethylamino)ethyl)benzenesulfonamide] | 554 | >200 |  |  |  | 
COCCNS(=O)(=O)c1ccc(NC2CCCCC2)c(NCc2ccccc2)c1 [Compound 36, 3-(benzylamino)-4-(cyclohexylamino)-N-(2-methoxyethyl)benzenesulfonamide] | 22 | 25 to 50 |  |  |  | 
